From patent US20260207704A1, “STAPLED PEPTIDES AND METHODS THEREOF” (priority 2022, published 2026)
Read-outs that look alike come from different tables or passages of the source. *1 amine or outer side, *2 acyl side, *3 side chain or, on linkers, in order; H or OH if unused. Bridges are numbered along the chain shown (N, C = ends). Primed or numbered codes have the meaning given here. [ ]: non-standard residue; d: D form. PyrS2(6) = (S)-3-amino-1-((pent-4-en-1-yloxy)carbonyl)pyrrolidine-3-carboxylic acid, stapled with another olefin-containing amino acid residue through the olefin group, O=C(OCCCC=[*:3])N1CC[C@@](N[*:1])(C(=O)[*:2])C1; B5(4) = 2-amino-2-(pent-4-en-1-yl)hept-6-enoic acid, stapled through each of its two olefin groups with other olefin-containing amino acid residues, O=C(C(CCCC=[*:3])(CCCC=[*:4])N[*:1])[*:2]; PyrS2″ = (S)-3-amino-1-((pent-4-en-1-yloxy)carbonyl)pyrrolidine-3-carboxylic acid (olefin stapling residue), C=CCCCOC(=O)N1CC[C@@](N[*:1])(C(=O)[*:2])C1; PyrS2 = (S)-3-amino-1-((pent-4-en-1-yloxy)carbonyl)pyrrolidine-3-carboxylic acid, olefin staple residue, C=CCCCOC(=O)N1CC[C@@](N[*:1])(C(=O)[*:2])C1; PyrS2(5) = (S)-3-amino-1-((pent-4-en-1-yloxy)carbonyl)pyrrolidine-3-carboxylic acid, C=CCCCOC(=O)N1CC[C@@](N[*:1])(C(=O)[*:2])C1; B5″ = 2-amino-2-(pent-4-en-1-yl)hept-6-enoic acid (bis-olefin stapling residue), C=CCCCC(CCCC=C)(N[*:1])C(=O)[*:2]; B5(5) = 2-amino-2-(pent-4-en-1-yl)hept-6-enoic acid (two olefin arms), C=CCCCC(CCCC=C)(N[*:1])C(=O)[*:2]; Phe(3-COOH) = N[C@@H](Cc1cccc(C(=O)O)c1)C(=O)O; 2F3MeF = Cc1cccc(C[C@H](N[*:1])C(=O)[*:2])c1F; Bta = N[C@@H](Cc1csc2ccccc12)C(=O)O; αAllylPro = C=CC[C@@]1(C(=O)O)CCCN1; tBuAla = CC(C)(C)C[C@H](N)C(=O)O; 3Thi = N[C@@H](Cc1ccsc1)C(=O)O; TriAzLys(3) = not defined here; hSer = N[C@@H](CCO)C(=O)O; 2F3MeF(4) = Phe analogue; AsnR = not defined here; GlnR = not defined here; sAla = not defined here; B5 = not defined here; Aib = CC(C)(N)C(=O)O

T1: beta-catenin (human, UniProt B6V8E6 146-665 (dog entry), limits assumed)
T1 sequence: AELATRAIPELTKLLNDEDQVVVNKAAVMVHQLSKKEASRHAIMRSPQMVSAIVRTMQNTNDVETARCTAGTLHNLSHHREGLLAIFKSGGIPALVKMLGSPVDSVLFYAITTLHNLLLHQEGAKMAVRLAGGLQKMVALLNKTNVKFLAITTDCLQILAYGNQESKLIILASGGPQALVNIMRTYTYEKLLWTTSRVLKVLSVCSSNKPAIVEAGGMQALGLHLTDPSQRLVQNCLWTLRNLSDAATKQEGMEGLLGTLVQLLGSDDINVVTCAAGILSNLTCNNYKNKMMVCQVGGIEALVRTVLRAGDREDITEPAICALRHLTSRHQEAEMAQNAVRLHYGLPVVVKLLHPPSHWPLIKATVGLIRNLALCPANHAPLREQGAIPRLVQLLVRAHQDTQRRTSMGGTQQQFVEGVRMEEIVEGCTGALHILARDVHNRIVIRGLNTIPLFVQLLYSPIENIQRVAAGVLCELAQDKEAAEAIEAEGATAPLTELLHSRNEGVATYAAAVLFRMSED


Experiments:
COLO320DM cells = experiment: COLO320DM proliferation assay; assay type: cell-based, human; conditions: read-out: COLO320DM Proliferation Abs IC50
Procedure: Various technologies can be utilized to assess technologies of the present disclosure. For example, in some embodiments, solubility, LogD, interactions with targets, etc. of various agents such as stapled peptides were assessed using technologies described in WO 2022/261257 (e.g., those in its Examples). In some embodiments, solubility, shake flask LogD, and binding to beta-catenin were assessed. In some embodiments, an assay for assessing interactions, e.g., with beta-catenin, was fluorescence polarization as described in WO 2022/261257. In some embodiments, an assay was Nano-BRET target engagement assay that assessed beta-catenin/TCF4 engagement as described in WO 2022/261257. In some embodiments, an assay was a reporter assay as reported in Example 4 of WO 2022/261257. In some embodiments, an assay was a COLO320DM proliferation assay as reported in Example 4 of WO 2022/261257.
Among other things, provided technologies can inhibit proliferation of various cells including various cancer cells. In some embodiments, provided technologies modulate WNT specific transcription. In some embodiments, provided technologies induce cell cycle arrest. In some embodiments, provided technologies induce G1 cell cycle arrest. In some embodiments, provided technologies increased proportion of cells in G1 phase of cell cycle. As confirmed in FIG. 3, provided technologies can inhibit proliferation of COLO320DM, which is a colorectal cell line comprising various mutations such as APC, TP53, etc., modulate WNT specific transcription such as of AXIN2 and CXCL12, and induce G1 cell cycle arrest. In some embodiments, it was confirmed that provided technologies can reduce proportion of cells in S phase of cell cycle.

DLD1 reporter = experiment: reporter assay (DLD1 reporter assay); assay type: cell-based; conditions: read-out: DLD1 4% Abs IC50
beta-catenin/TCF = assay type: cell-based; conditions: COLO320DM cells
[1] = mouse plasma pharmacokinetics; assay type: in vivo; conditions: single intraperitoneal (IP) dose at 100 mg/kg
beta-catenin = molecular target: T1, beta-catenin; experiment: cell-based or functional assay
beta-catenin (human) [2] = experiment: fluorescence polarization; bin >750 nM
beta-catenin (human) [3] = experiment: cell-based or functional assay

IC50 (beta-catenin (human) [2])	Molecule	IC50 (COLO320DM cells)	IC50 (DLD1 reporter; DLD1 4%)	also measured
	CC(=O)N1CCC[C@]12CC=CCCCC1(CCCC=CCCCOC(=O)N3CC[C@@]4(C3)NC(=O)[C@H](CCCCn3cc(nn3)C[C@@H](C(=O)N[C@@H](C)C(N)=O)NC(=O)[C@H](Cc3csc5ccccc35)NC(=O)[C@H](Cc3ccsc3)NC4=O)NC(=O)[C@H](Cc3ccccc3)NC(=O)[C@H](C)NC(=O)C(C)(C)NC(=O)[C@H](Cc3cccc(C(=O)O)c3)NC(=O)[C@H](CC(=O)O)NC1=O)NC(=O)[C@H](CC(C)(C)C)NC(=O)[C@H](CC(=O)O)NC2=O (single isomer, unassigned) [I-335, Ac-PL3-Asp-Npg-B5-Asp-3COOHF-Aib-Ala-Phe-TriAzLys*3-PyrS2-3Thi-BztA-sAla*3-Ala-NH2]	≤ 10 µM		IC50 (DLD1 reporter; DLD1 reporter, 4%): ≤ 1000 nM
	CC(=O)N1CCC[C@]12CC=CCCCC1(CCCC=CCCCOC(=O)N3CC[C@@]4(C3)NC(=O)[C@H](CCCCNC(=O)CC[C@@H](C(=O)N[C@@H](CC(C)C)C(=O)N[C@@H](CO)C(N)=O)NC(=O)[C@H](Cc3csc5ccccc35)NC(=O)[C@H](Cc3ccccc3C(F)(F)F)NC4=O)NC(=O)[C@H](Cc3ccccc3)NC(=O)[C@H](C)NC(=O)C(C)(C)NC(=O)[C@H](Cc3cccc(C(=O)O)c3)NC(=O)[C@H](CC(=O)O)NC1=O)NC(=O)[C@H](CC(C)(C)C)NC(=O)[C@H](CC(=O)O)NC2=O (relative stereo) [I-138, Ac-PL3-Asp-Npg-B5-Asp-3COOHF-Aib-Ala-Phe-Lys*3-PyrS2-2F3MeF-BztA-GlnR*3-Leu-Ser-NH2]	≤ 10 µM	≤ 1000 nM	
	CC(=O)N1CCC[C@]12CC=CCCCC1(CCCC=CCCCOC(=O)N3CC[C@@]4(C3)NC(=O)[C@H](CCCCn3cc(nn3)COC[C@@H](C(=O)N[C@@H](C)C(N)=O)NC(=O)[C@H](Cc3csc5ccccc35)NC(=O)[C@H](Cc3ccsc3)NC4=O)NC(=O)[C@H](Cc3ccccc3)NC(=O)[C@H](C)NC(=O)C(C)(C)NC(=O)[C@H](Cc3cccc(C(=O)O)c3)NC(=O)[C@H](CC(=O)O)NC1=O)NC(=O)[C@H](CC(C)(C)C)NC(=O)[C@H](CC(=O)O)NC2=O (relative stereo) [I-262, Ac-PL3-Asp-Npg-B5-Asp-3COOHF-Aib-Ala-Phe-TriAzLys*3-PyrS2-3Thi-BztA-sCH2S*3-Ala-NH2]	≤ 10 µM	≤ 1000 nM	
	CC(=O)N1CCC[C@]12CC=CCCCC1(CCCC=CCCCOC(=O)N3CC[C@@]4(C3)NC(=O)[C@H](CCCCNC(=O)CC[C@@H](C(=O)N[C@@H](C)C(N)=O)NC(=O)[C@H](Cc3csc5ccccc35)NC(=O)[C@H](Cc3ccsc3)NC4=O)NC(=O)[C@H](Cc3ccccc3)NC(=O)[C@H](C)NC(=O)C(C)(C)NC(=O)[C@H](Cc3cccc(C(=O)O)c3)NC(=O)[C@H](CCC(=O)O)NC1=O)NC(=O)[C@H](CC(C)(C)C)NC(=O)[C@H](CCC(=O)O)NC2=O (relative stereo) [I-470, Ac-PL3-Glu-Npg-B5-Glu-3COOHF-Aib-Ala-Phe-Lys*3-PyrS2-3Thi-BztA-GlnR*3-Ala-NH2]			effect on expression level of AXIN2 (beta-catenin/TCF): no or very little or non-significant effect; plasma AUC [1]: comparable plasma AUC
	CC(=O)N1CCC[C@]12CC=CCCCC1(CCCC=CCCCOC(=O)N3CC[C@@]4(C3)NC(=O)[C@H](CCCCNC(=O)CC[C@@H](C(=O)N[C@@H](C)C(N)=O)NC(=O)[C@H](Cc3csc5ccccc35)NC(=O)[C@H](Cc3ccccc3C(F)(F)F)NC4=O)NC(=O)[C@H](Cc3ccccc3)NC(=O)[C@H](C)NC(=O)C(C)(C)NC(=O)[C@H](Cc3cccc(C(=O)O)c3)NC(=O)[C@H](CC(=O)O)NC1=O)NC(=O)[C@H](CC(C)(C)C)NC(=O)[C@H](CC(=O)O)NC2=O (single isomer, unassigned) [I-69, Ac-PL3-Asp-Npg-B5-Asp-3COOHF-Aib-Ala-Phe-Lys*3-PyrS2-2F3MeF-BztA-GlnR*3-Ala-NH2]	≤ 10 µM	≤ 1000 nM	
	CCCC[C@@H]1NC(=O)[C@H](Cc2cccc(C(=O)O)c2)NC(=O)[C@H](CC(=O)O)NC(=O)C2(CCCC=CCCCOC(=O)N3CC[C@@]4(C3)NC(=O)[C@H](CCCCNC(=O)CC[C@@H](C(=O)N[C@@H](C)C(N)=O)NC(=O)[C@H](Cc3csc5ccccc35)NC(=O)[C@H](Cc3ccsc3)NC4=O)NC(=O)[C@H](Cc3ccccc3)NC(=O)[C@H](C)NC1=O)CCCC=CC[C@]1(CCCN1C(C)=O)C(=O)N[C@@H](CC(=O)O)C(=O)N[C@@H](CC(C)(C)C)C(=O)N2 (relative stereo) [I-70, Ac-PL3-Asp-Npg-B5-Asp-3COOHF-nLeu-Ala-Phe-Lys*3-PyrS2-3Thi-BztA-GlnR*3-Ala-NH2]	≤ 10 µM	≤ 1000 nM	
	Ac-[αAllylPro]D[tBuAla][B5]D[Phe(3-COOH)]AAFL[PyrS2][2F3MeF][Bta]Q-NH2 (staple 1-4, 4-11; not fully specified; reading uncertain) [Peptide A]			AXIN2 expression IC50, COLO320DM cells (beta-catenin): 1.4 µM; AXIN2 expression IC50, DLD1 cells (beta-catenin): 9.3 µM; SP5 expression IC50, DLD1 cells (beta-catenin): 9 µM
< 1000 nM	Ac-[αAllylPro]D[tBuAla][B5(4)]D[Phe(3-COOH)][sAla]AF[TriAzLys(3)][PyrS2(6)][2F3MeF(4)][Bta]Q-NH2 (triazole 7-10; not fully specified (bridges); printed as Ac-PL3-Asp-Npg-B5-Asp-3COOHF-sAla*3-Ala-Phe-TriAzLys*3-PyrS2-2F3MeF-BztA-Gln-NH2; reading uncertain) [I-28]			
< 1000 nM	Ac-[αAllylPro]D[tBuAla][B5(5)]D[Phe(3-COOH)]AAF[AsnR][PyrS2(5)][3Thi][Bta]KA-NH2 (bridge 10-14; reading uncertain; also: PL3/B5/PyrS2 staple links not placed, printed as Ac-PL3-Asp-Npg-B5-Asp-3COOHF-Ala-Ala-Phe-AsnR*3-PyrS2-3Thi-BztA-Lys*3-Ala-NH2) [I-44]			
< 1000 nM	Ac-[αAllylPro]D[tBuAla][B5]D[Phe(3-COOH)][GlnR]AFL[PyrS2][2F3MeF][Bta][GlnR](39N2spiroundecane)A-NH2 (staple 1-4, 4-11 (inferred); not fully specified; printed as Ac-PL3-Asp-Npg-B5-Asp-3COOHF-GlnR-Ala-Phe-Leu-PyrS2-2F3MeF-BztA-[39N2spiroundecane]GlnR-Ala-NH2; reading uncertain; also: staple C=C reduced to CH2-CH2) [I-133]			NanoBRET Abs IC50 (beta-catenin (human) [3]): > 10 µM
< 1000 nM	Ac-[αAllylPro]D[tBuAla][B5(4)]DD[sAla]AF[TriAzLys(3)][PyrS2(6)][3Thi][Bta]Q-NH2 (triazole 7-10; not fully specified (bridges); printed as Ac-PL3-Asp-Npg-B5-Asp-Asp-sAla*3-Ala-Phe-TriAzLys*3-PyrS2-3Thi-BztA-Gln-NH2; reading uncertain) [I-26]			
< 1000 nM	Ac-[αAllylPro]D[tBuAla][B5(5)]D[Phe(3-COOH)]AAF[AsnR][PyrS2(5)][3Thi][Bta]K-NH2 (bridge 10-14; not fully specified (bridges); printed as Ac-PL3-Asp-Npg-B5-Asp-3COOHF-Ala-Ala-Phe-AsnR*3-PyrS2-3Thi-BztA-Lys*3-NH2; reading uncertain) [I-35]			
< 1000 nM	Ac-[αAllylPro][hSer][tBuAla][B5″]D[Phe(3-COOH)][Aib]AFK[PyrS2″][2F3MeF][Bta][GlnR]LS-NH2 (bridge 10-14; reading uncertain; also: PL3-B5 and PyrS2 links not placed, printed as Ac-PL3-Hse-Npg-B5-Asp-3COOHF-Aib-Ala-Phe-Lys*3-PyrS2-2F3MeF-BztA-GlnR*3-Leu-Ser-NH2) [I-147]			
